This is an account of results in patent US20110136666A1, “CHEMICAL COMPOUNDS” (SYNGENTA CROP PROTECTION, INC., priority 2008, published 2011).

Series [1] deals with Alopecurus myosuroides (ALOMY). The series can be described thus: Pre-emergence biological efficacy, glasshouse pot test. The series is classed as in vivo. As to conditions: 312 h, after 13 days, 100=total damage, 0=no damage, read-out: Percentage damage caused to weed species ALOMY. Summed up:
(§1)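 Pots sown with weed seeds, sprayed 1 day after sowing with test compound in acetone/water (50:50) plus 0.5% Tween 20 at 250 or 1000 g/ha. Plants grown in glasshouse at 24/16° C day/night, 14 h light, 65% humidity, watered twice daily. Damage scored visually after 13 days (0 = none, 100 = total).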

Series [2] relates to Amaranthus retroflexus (AMARE). The series is described as above. The series is classed as in vivo. As to conditions: 312 h, after 13 days, 100=total damage, 0=no damage, read-out: Percentage damage caused to weed species AMARE. An outline of the steps:
as §1

Series [3] has as its system Echinochloa crus-galli (ECHCG). The description is as above. The series is classed as in vivo. The note with it: 312 h, after 13 days, 100=total damage, 0=no damage, read-out: Percentage damage caused to weed species ECHCG. Summed up: as §1
Series [4] has as its system Ipomea hederaceae (IPOHE). Described as above. The series is classed as in vivo. The note with it: Ipomoea hederacea, 312 h, after 13 days, 100=total damage, 0=no damage, read-out: Percentage damage caused to weed species IPOHE. Summed up:
as §1

For series [5], the system named is Setaria faberi (SETFA). Described as above. The class given is in vivo. As to conditions: 312 h, after 13 days, 100=total damage, 0=no damage, read-out: Percentage damage caused to weed species SETFA. Summed up: as §1
Series [6] has as its system Solanum nigrum (SOLNI). The description is as above. The note with it: 312 h, after 13 days, 100=total damage, 0=no damage, read-out: Percentage damage caused to weed species SOLNI. The series is classed as in vivo. Summed up: as §1
Series [7] concerns Alopecurus myosuroides (ALOMY). The series can be described thus: Post-emergence biological efficacy, glasshouse pot test. The series is classed as in vivo. The note with it: 312 h, after 13 days, 100=total damage, 0=no damage, read-out: Percentage damage caused to weed species ALOMY. Summed up:
(§2)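 Species sown in soil and grown 8 days in glasshouse (24/16 °C day/night, 14 h light, 65% humidity), then sprayed with compound in acetone/water (50:50) with 0.5% Tween 20 at 250 or 1000 g/ha. Damage scored visually after 13 days (0 = none, 100 = total).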

In series [8] the test system is Amaranthus retroflexus (AMARE). The series is described as above. The series is classed as in vivo. The note with it: 312 h, after 13 days, 100=total damage, 0=no damage, read-out: Percentage damage caused to weed species AMARE. An outline of the steps: as §2
The subject of series [9] is Echinochloa crus-galli (ECHCG). The series is described as above. The class given is in vivo. As to conditions: 312 h, after 13 days, 100=total damage, 0=no damage, read-out: Percentage damage caused to weed species ECHCG. Summed up: as §2
Series [10] relates to Ipomea hederaceae (IPOHE). The series is described as above. The series is classed as in vivo. As to conditions: Ipomoea hederacea, 312 h, after 13 days, 100=total damage, 0=no damage, read-out: Percentage damage caused to weed species IPONE. An outline of the steps:
as §2

Series [11] concerns Setaria faberi (SETFA). The description is as above. The note with it: 312 h, after 13 days, 100=total damage, 0=no damage, read-out: Percentage damage caused to weed species SETFA. The series is classed as in vivo. Summed up: as §2
Series [12] deals with Solanum nigrum (SOLNI). The series is described as above. The class given is in vivo. As to conditions: 312 h, after 13 days, 100=total damage, 0=no damage, read-out: Percentage damage caused to weed species SOLNI. Summed up: as §2

Take `Nc1nc(-c2ccccn2)nc(C(=O)O)c1Cl` [Compound 1-149, 4-amino-5-chloro-2-pyridin-2-ylpyrimidine-6-carboxylic acid]: the melting point is 183 °C (dec.). Moreover, the pest or weed control at 1000 g/ha in series [1] was determined as 0%. In addition, the pest or weed control at 1000 g/ha in series [2] came to 0%. In addition, in series [3], the pest or weed control at 1000 g/ha is 0%. In series [4], the pest or weed control at 1000 g/ha was 0%. In the series with Setaria faberi (SETFA) [5], the pest or weed control at 1000 g/ha is 0%. In the series with Solanum nigrum (SOLNI) [6], the pest or weed control at 1000 g/ha was found to be 0%. In series [7], the pest or weed control at 1000 g/ha worked out at 0%. In [8], the pest or weed control at 1000 g/ha turned out to be 0%. Moreover, the pest or weed control at 1000 g/ha in series [9] is 0%. The pest or weed control at 1000 g/ha in series [10] turned out to be 0%. In addition, the pest or weed control at 1000 g/ha in the series with Setaria faberi (SETFA) [11] was determined as 0%. For the same molecule, the pest or weed control at 1000 g/ha in the series on Solanum nigrum (SOLNI) [12] stood at 0%.
On to `COC(=O)c1nc(-c2cccnc2OCC(F)(F)F)nc(N)c1Cl` [Compound 2-166, 4-Amino-5-chloro-6-methoxycarbonyl-2-(2-[2,2,2-trifluoroethoxy]-pyridin-3-yl)-pyrimidine], for which the pest or weed control at 250 g/ha (in series [1]; in series [2]; in series [3]; in [4]; with Setaria faberi (SETFA) [5]; in the series with Solanum nigrum (SOLNI) [6]) was 0% throughout. The pest or weed control at 250 g/ha (in [7]; in series [8]; in [9]; in series [10]; in the series on Setaria faberi (SETFA) [11]; with Solanum nigrum (SOLNI) [12]) was 0% each time.
Regarding `COC(=O)c1nc(-c2cccnc2F)nc(N)c1Cl` [Compound 2-172, 4-Amino-5-chloro-2-(2-fluoropyridin-3-yl)-6-methoxycarbonyl pyrimidine], the pest or weed control at 250 g/ha (in [1]; in [2]; in [3]; in series [4]; in the series with Setaria faberi (SETFA) [5]; in the series with Solanum nigrum (SOLNI) [6]) was 0% each time. Further, the pest or weed control at 250 g/ha in [7] came to 10%; in series [8], 0%; in series [9], 0%; in series [10] it was 10%; in the series on Setaria faberi (SETFA) [11], 10%; in the series with Solanum nigrum (SOLNI) [12], 60%.
As for `COC(=O)c1nc(-c2cc(Cl)nc(Cl)c2)nc(N)c1Cl` [Compound 2-179, 4-Amino-5-chloro-2-(2,6-dichloropyridin-4-yl)-6-methoxycarbonyl pyrimidine], the pest or weed control at 1000 g/ha (in [1]; in series [2]; in [3]; in series [4]; in the series on Setaria faberi (SETFA) [5]; in the series with Solanum nigrum (SOLNI) [6]) was 0% each time. Moreover, the pest or weed control at 1000 g/ha in series [7] was found to be 0%; in [8], 30%; in [9] it was 0%; in series [10], 40%; in the series on Setaria faberi (SETFA) [11], 10%; with Solanum nigrum (SOLNI) [12], 30%.
With `COC(=O)c1nc(-c2cnc(OC)nc2)nc(N)c1Cl` [Compound 2-182, 4-Amino-5-chloro-6-methoxycarbonyl-2-(2-methoxypyrimidin-5-yl)-pyrimidine], the pest or weed control at 1000 g/ha in series [1] came to 0%; in [2] it was 0%; in series [3], 0%; in series [4], 0%; in the series with Setaria faberi (SETFA) [5], 0%; in the series on Solanum nigrum (SOLNI) [6], 40%. Moreover, the pest or weed control at 1000 g/ha was found to be 0% in series [7]; 20% in series [8]; 0% in series [9]; 30% in series [10]; 10% in the series on Setaria faberi (SETFA) [11]; 70% with Solanum nigrum (SOLNI) [12].
For the molecule `COC(=O)c1nc(-c2cncc3ccccc23)nc(N)c1Cl` [Compound 2-196, 4-Amino-5-chloro-2-isoquinolin-4-yl-6-methoxycarbonyl pyrimidine], the pest or weed control at 1000 g/ha (in series [1]; in [2]; in series [3]; in series [4]; in the series on Setaria faberi (SETFA) [5]; in the series on Solanum nigrum (SOLNI) [6]) was 0% in each case. For the same molecule, the pest or weed control at 1000 g/ha (in [7]; in series [8]; in series [9]; in series [10]; in the series on Setaria faberi (SETFA) [11]; in the series on Solanum nigrum (SOLNI) [12]) was 0% throughout.
Consider `CCOC(=O)c1nc(-c2ccc(Cl)s2)nc(N)c1Cl` [Compound 3-2, 4-amino-5-chloro-2-(5-chlorothiophen-2-yl)-6-ethoxycarbonyl-pyrimidine], for which the pest or weed control at 1000 g/ha came to 0% in [1]; 30% in series [2]; 0% in series [3]; 0% in [4]; 0% with Setaria faberi (SETFA) [5]; 0% with Solanum nigrum (SOLNI) [6]. The pest or weed control at 1000 g/ha came to 0% in series [7]; 80% in series [8]; 0% in series [9]; 50% in [10]; 0% in the series with Setaria faberi (SETFA) [11]; 70% in the series on Solanum nigrum (SOLNI) [12].
For the molecule `CCOC(=O)c1nc(-c2ccc(C(F)(F)F)cn2)nc(N)c1Cl` [Compound 3-150, 4-amino-5-chloro-6-ethoxycarbonyl-2-(5-trifluoromethylpyridin-2-yl)-pyrimidine], the pest or weed control at 1000 g/ha (in [1]; in series [2]; in [3]; in [4]; with Setaria faberi (SETFA) [5]; in the series with Solanum nigrum (SOLNI) [6]) was 0% throughout. The pest or weed control at 1000 g/ha (in series [7]; in [8]; in [9]; in series [10]; in the series with Setaria faberi (SETFA) [11]; in the series on Solanum nigrum (SOLNI) [12]) was 0% in each case.
For the molecule `O=C(O)c1nc(-c2ccccn2)nc(Cl)c1Cl` [Compound 61-149, 4,5-dichloro-2-pyridin-2-ylpyrimidine-6-carboxylic acid], the pest or weed control at 1000 g/ha (in [1]; in series [2]; in series [3]; in series [4]; with Setaria faberi (SETFA) [5]; in the series on Solanum nigrum (SOLNI) [6]) was 0% throughout. Also, the pest or weed control at 1000 g/ha in series [7] came to 0%; in [8], 0%; in series [9], 0%; in series [10], 0%; in the series on Setaria faberi (SETFA) [11], 0%; in the series with Solanum nigrum (SOLNI) [12], 40%.

Broadly, the melting point is the temperature, or range, at which the solid turns liquid.
